Where two headings read alike, the source gives them in different places.
How the values were obtained:
cellular GLS activity = cellular GLS activity (Homo sapiens (Human), UniProt O94925); assay: GLS Cell Potency Assay (PC3 coupled assay measuring cellular glutamate depletion); type: cell-based; settings: PC3 cells, 6 h incubation, glutamate depletion; read-out: Assay b) GLS cell MOA Mean IC50
Description: (§1) The following assays were used to measure the effects of the compounds described herein: a) GLS Enzyme Potency Assay; b) GLS Cell Potency Assay; c) GLS Cell Proliferation Assay. During the description of the assays, generally: • i. The following abbreviations have been used: CO2=Carbon dioxide; DMEM=Dulbecco's Modified Eagle Medium; DMSO=Dimethyl sulphoxide; EDTA=Ethylenediaminetetraacetic acid; EGTA=Ethylene glycol tetraacetic acid; FCS=Foetal calf serum; h=Hour(s); NBS=Non-binding surface; SDS=Sodium dodecyl sulphate; TRIS=Tris(Hydroxymethyl)aminomethane. • ii. IC50 values were calculated using a smart fitting model in Genedata.
Assay b): GLS Cell Potency Assay
Compounds were assessed for their potential to inhibit cellular GLS activity by use of a PC3 coupled assay measuring cellular glutamate depletion. […] DMSO concentration was maintained at 0.3% by back filling with DMSO solution. PC3 cells were grown in phenol free DMEM, 10% dialyzed FCS, 2 mM glutamine and following dispersal by trypsinisation were plated at 5.6×10^3 cells per well in 40 μl of growth medium directly into the 384 well assay plates containing dispensed compound. After incubation for 6 h at 37° C., 5% CO2 growth media was aspirated and cells lysed in 15 μl of buffer containing 10 mM TRIS pH7.4, 100 mM NaCl, 1 mM EDTA, 1 mM EGTA, 1 mM NaF, 20 mM Na4P2O7, 2 mM Na3VO4, 1% Triton X-100, 10% glycerol, 0.1% SDS and 0.5% deoxycholate.

NCI-H1703 cells = assay: GLS Cell Proliferation Assay (NCI-H1703 cell proliferation); type: cell-based
Description: as §1
Assay c): GLS Cell Proliferation Assay
The ability of compounds to inhibit cell growth was measured using a 384 well plate NCI-H1703 cell proliferation assay. NCI-H1703 cells were grown in phenol red free RPMI1640, 10% FCS and 2 mM glutamine and seeded at a density of 750 cells per well in 40 μl of growth medium into clear-bottom 384 well assay plates (Corning product code 3712) and incubated for 24 h at 37° C., 5% CO2. Test compounds were prepared by dilution in 100% DMSO to give the correct dose range for 12 point concentration response and an appropriate volume (5-120 nl) dispensed directly into the assay plates containing plated cells. DMSO concentration was maintained at 0.3% by back filling with DMSO solution. Plates were incubated for 5 days at 37° C., 5% CO2, Sytox Green and Saponin added to final concentration of 2 μM and 0.25% respectively and incubated for 6 h prior to analysis. Plates were read on an Acumen eX3 (TTP Labtech) using 488 nm excitation and FITC filter set (500-530 nm) for emission. IC50 values were calculated by curve fitting to max inhibition of day zero growth using GeneData software analysis.

GLS1 = GLS1 (Homo sapiens (Human), UniProt O94925); assay: GLS Enzyme Potency Assay (Glutamate Oxidase/AmplexRed coupled assay); type: biochemical
Sequence of GLS1 (O94925 63-669): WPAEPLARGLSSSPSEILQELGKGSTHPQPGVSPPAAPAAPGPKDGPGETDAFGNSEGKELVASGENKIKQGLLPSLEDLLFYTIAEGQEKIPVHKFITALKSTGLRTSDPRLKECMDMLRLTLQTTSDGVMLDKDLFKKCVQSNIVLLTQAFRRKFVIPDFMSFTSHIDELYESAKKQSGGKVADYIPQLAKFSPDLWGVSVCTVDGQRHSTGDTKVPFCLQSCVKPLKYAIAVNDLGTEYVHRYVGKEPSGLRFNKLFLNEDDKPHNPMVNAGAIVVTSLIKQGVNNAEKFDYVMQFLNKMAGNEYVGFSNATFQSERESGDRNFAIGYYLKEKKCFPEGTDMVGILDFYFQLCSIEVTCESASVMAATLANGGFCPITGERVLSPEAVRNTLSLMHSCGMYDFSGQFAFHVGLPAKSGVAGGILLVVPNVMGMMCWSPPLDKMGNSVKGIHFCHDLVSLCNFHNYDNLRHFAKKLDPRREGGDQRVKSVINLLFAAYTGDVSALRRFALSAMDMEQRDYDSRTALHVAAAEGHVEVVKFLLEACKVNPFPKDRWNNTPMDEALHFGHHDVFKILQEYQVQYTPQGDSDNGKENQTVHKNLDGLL
Description: as §1
Assay a): GLS Enzyme Potency Assay
A Glutamate Oxidase/AmplexRed coupled assay was used to measure the ability of compounds to bind to and inhibit the activity of GLS1 in vitro. […] GLS1 was diluted to 2× working concentration and incubated at room temperature to allow the tetrameric/dimeric forms to reach steady state. Assay measurements were performed in buffer comprising 50 mM TRIS pH 7.8, 100 mM NaPO4, pH 7.8, 0.001% v/v Tween20. Purified recombinant GLS1 protein was diluted in assay buffer to 12 nM and pre-incubated at room temperature for 30 minutes. […] DMSO concentration was maintained at 2% by back filling with DMSO solution. 3 μL of diluted GLS1 protein (12 nM) was then dispensed into each well using a BioRaptr automated dispenser (Beckman-Coulter) and incubated for 15 minutes at room temperature. 3 μL of 100 mM glutamine diluted in assay buffer was then added and the reaction incubated at room temperature for 60 minutes. […] An artefact version of the assay where the 6His tagged GLS protein and glutamine were replaced with assay buffer was also used to rule out non specific effects on the assay components.

[1] = NCI-H1703 cells, 5 days; read-out: Assay c) Prolif Mean IC50
[2] = 6His tagged GLS protein (amino acids 63-669), glutamine substrate; read-out: Assay a) enz IC50
[3] = Homo sapiens, NCI-H1703, 120 h, NCI-H1703 cells, 5 days; read-out: Assay c) Prolif Mean IC50

Sequence of cellular GLS activity (O94925 73-669): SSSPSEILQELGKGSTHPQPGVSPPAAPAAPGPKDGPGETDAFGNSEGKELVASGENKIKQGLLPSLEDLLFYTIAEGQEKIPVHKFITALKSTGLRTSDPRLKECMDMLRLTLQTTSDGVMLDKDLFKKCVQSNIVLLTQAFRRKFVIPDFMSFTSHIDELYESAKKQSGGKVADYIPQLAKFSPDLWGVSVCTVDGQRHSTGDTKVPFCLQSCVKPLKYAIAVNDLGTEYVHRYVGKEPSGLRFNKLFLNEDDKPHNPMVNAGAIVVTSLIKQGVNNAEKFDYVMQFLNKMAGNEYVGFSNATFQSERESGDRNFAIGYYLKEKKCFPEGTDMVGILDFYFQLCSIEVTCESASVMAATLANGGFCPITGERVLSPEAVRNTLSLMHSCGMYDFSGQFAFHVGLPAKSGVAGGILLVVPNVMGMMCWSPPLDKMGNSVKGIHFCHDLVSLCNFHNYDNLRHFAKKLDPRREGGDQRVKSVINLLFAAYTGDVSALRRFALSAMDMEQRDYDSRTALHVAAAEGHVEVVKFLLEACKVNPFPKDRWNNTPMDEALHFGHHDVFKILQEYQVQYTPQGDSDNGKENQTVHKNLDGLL

SMILES: CO[C@H](C(=O)Nc1nnc(N[C@@H]2CCN(c3ccc(C)nn3)C2)s1)c1cccc(OC(F)F)c1 (single isomer, unassigned) [8(a)]
- IC50 (cellular GLS activity): 1.3 nM
- IC50 (NCI-H1703 cells; [1]): 5.48 nM
- IC50 (GLS1; [2]): 99.4 nM

SMILES: CCOC(C(=O)Nc1nnc(N[C@@H]2CCN(c3ccc(F)nn3)C2)s1)c1ccc(F)cc1 (single isomer, unassigned) [Example 26]
- IC50 (cellular GLS activity): 2.12 nM
- IC50 (NCI-H1703 cells; [1]): 21.9 nM
- IC50 (GLS1; [2]): 94.8 nM

SMILES: CO[C@H](C(=O)Nc1nnc(N[C@@H]2CCN(c3ccc(C)nn3)C2)s1)c1ccc(F)cc1 (single isomer, unassigned) [5(b)]
- IC50 (NCI-H1703 cells; [1]): 1020 nM
- IC50 (GLS1; read-out: Assay a) enz IC50): 975 nM

SMILES: COc1cc(C(OC)C(=O)Nc2nnc(N[C@@H]3CCN(c4ccc(F)nn4)C3)s2)ccc1F (single isomer, unassigned) [Example 23]
- IC50 (cellular GLS activity): 197 nM
- IC50 (NCI-H1703 cells; [1]): 106 nM
- IC50 (GLS1; [2]): 265 nM

SMILES: CO[C@H](C(=O)Nc1nnc(N[C@@H]2CCN(c3cc(C)cnn3)C2)s1)c1ccc(F)cc1 (single isomer, unassigned) [10(b)]
- IC50 (NCI-H1703 cells; [1]): 204 nM

SMILES: COc1ccc([C@H](OC)C(=O)Nc2nnc(N[C@@H]3CCN(c4cc(Cl)cnn4)C3)s2)cc1 (single isomer, unassigned) [11(b)]
- IC50 (cellular GLS activity): 10.5 nM
- IC50 (NCI-H1703 cells; [1]): 129 nM
- IC50 (GLS1; read-out: Assay a) enz IC50): 84.8 nM

SMILES: CCO[C@H](C(=O)Nc1nnc(N[C@@H]2CCN(c3ccc(C)nn3)C2)s1)c1cccc(OC)c1 (single isomer, unassigned) [Example 4(a)]
- IC50 (cellular GLS activity): 0.457 nM
- IC50 (NCI-H1703 cells; [1]): 6.64 nM
- IC50 (GLS1; [2]): 79.2 nM

SMILES: COc1ccc(C(OC)C(=O)Nc2nnc(N[C@@H]3CCN(c4ccc(F)nn4)C3)s2)cc1 (single isomer, unassigned) [Example 21]
- IC50 (cellular GLS activity): 53.7 nM
- IC50 (NCI-H1703 cells; [1]): 930 nM
- IC50 (GLS1; [2]): 223 nM

SMILES: COC(C(=O)Nc1nnc(N[C@@H]2CCN(c3ccc(F)nn3)C2)s1)c1cccc(OC(F)(F)F)c1 (single isomer, unassigned) [Example 17]
- IC50 (cellular GLS activity): 0.251 nM
- IC50 (NCI-H1703 cells; [1]): 1.74 nM
- IC50 (GLS1; [2]): 24.3 nM

SMILES: COc1ccc(C(OC)C(=O)Nc2nnc(N[C@@H]3CCN(c4ccc(F)nn4)C3)s2)cc1 (single isomer, unassigned) [Example 22]
- IC50 (cellular GLS activity): 2.45 nM
- IC50 (NCI-H1703 cells; [1]): 36.9 nM
- IC50 (GLS1; [2]): 18.9 nM

SMILES: CCOC(C(=O)Nc1nnc(N[C@@H]2CCN(c3ccc(F)nn3)C2)s1)c1ccc(F)cc1 (single isomer, unassigned) [Example 25]
- IC50 (cellular GLS activity): 63.2 nM
- IC50 (NCI-H1703 cells; [1]): 686 nM
- IC50 (GLS1; [2]): 1090 nM

SMILES: COc1ccc(C(OC)C(=O)Nc2nnc(N[C@@H]3CCN(c4ccc(C)nn4)C3)s2)cc1 (stereo partly drawn) [Example 30, 2-methoxy-2-(4-methoxyphenyl)-N-[5-[[(3R)-1-(6-methylpyridazin-3-yl)pyrrolidin-3-yl]amino]-1,3,4-thiadiazol-2-yl]acetamide]
- IC50 (cellular GLS activity): 5.29 nM
- IC50 (NCI-H1703 cells; [1]): 43.7 nM
- IC50 (GLS1; [2]): 119 nM

SMILES: CO[C@H](C(=O)Nc1nnc(N[C@@H]2CCN(c3cc(C)cnn3)C2)s1)c1ccc(F)cc1 (single isomer, unassigned) [Example 10(a)]
- IC50 (NCI-H1703 cells; [1]): 1210 nM

SMILES: CO[C@H](C(=O)Nc1nnc(N[C@@H]2CCN(c3ccc(C)nn3)C2)s1)c1cccc(OC(F)(F)F)c1 (single isomer, unassigned) [Example 7(a)]
- IC50 (cellular GLS activity): 0.556 nM
- IC50 (NCI-H1703 cells; [1]): 3.08 nM
- IC50 (GLS1; [2]): 95.2 nM

SMILES: CCOC(C(=O)Nc1nnc(N[C@@H]2CCN(c3ccc(C)nn3)C2)s1)c1ccc(F)cc1 (single isomer, unassigned) [Example 27]
- IC50 (cellular GLS activity): 72.2 nM
- IC50 (NCI-H1703 cells; [1]): 1220 nM
- IC50 (GLS1; [2]): 2380 nM

SMILES: CO[C@H](C(=O)Nc1nnc(N[C@@H]2CCN(c3cc(Cl)cnn3)C2)s1)c1ccccc1 [Example 12, (2S)-N-[5-[[(3R)-1-(5-Chloropyridazin-3-yl)pyrrolidin-3-yl]amino]-1,3,4-thiadiazol-2-yl]-2-methoxy-2-phenyl-acetamide]
- IC50 (cellular GLS activity): 0.451 nM
- IC50 (NCI-H1703 cells; [3]): 3.07 nM
- IC50 (GLS1; [2]): 35.3 nM

SMILES: CCOC(C(=O)Nc1nnc(N[C@@H]2CCN(c3ccc(C)nn3)C2)s1)c1ccc(OC)cc1 (single isomer, unassigned) [Example 15]
- IC50 (cellular GLS activity): 34.8 nM
- IC50 (NCI-H1703 cells; [1]): 567 nM
- IC50 (GLS1; [2]): 277 nM

SMILES: CCO[C@H](C(=O)Nc1nnc(N[C@@H]2CCN(c3ccc(C)nn3)C2)s1)c1cccc(OC)c1 (single isomer, unassigned) [4(b)]
- IC50 (cellular GLS activity): 43.1 nM
- IC50 (NCI-H1703 cells; [1]): 389 nM
- IC50 (GLS1; read-out: Assay a) enz IC50): 290 nM

SMILES: CCOC(C(=O)Nc1nnc(N[C@@H]2CCN(c3ccc(C)nn3)C2)s1)c1ccc(OC)cc1 (single isomer, unassigned) [Example 16]
- IC50 (cellular GLS activity): 2.74 nM
- IC50 (NCI-H1703 cells; [1]): 55 nM
- IC50 (GLS1; [2]): 80.9 nM

SMILES: CO[C@H](C(=O)Nc1nnc(N[C@@H]2CCN(c3ccc(C)nn3)C2)s1)c1cccc(OC(F)F)c1 (single isomer, unassigned) [8(b)]
- IC50 (cellular GLS activity): 22.1 nM
- IC50 (NCI-H1703 cells; [1]): 117 nM
- IC50 (GLS1; [2]): 643 nM

SMILES: CO[C@H](C(=O)Nc1nnc(N[C@@H]2CCN(c3ccc(C)nn3)C2)s1)c1ccccc1 [Example 14, (2S)-2-methoxy-N-[5-[[(3R)-1-(6-methylpyridazin-3-yl)pyrrolidin-3-yl]amino]-1,3,4-thiadiazol-2-yl]-2-phenyl-acetamide]
- IC50 (cellular GLS activity): 1.04 nM
- IC50 (NCI-H1703 cells; [3]): 22.7 nM
- IC50 (GLS1; [2]): 44.3 nM

SMILES: COc1ccc([C@H](OC)C(=O)Nc2nnc(N[C@@H]3CCN(c4cc(Cl)cnn4)C3)s2)cc1 (single isomer, unassigned) [Example 11(a)]
- IC50 (NCI-H1703 cells; [1]): 54.4 nM
- IC50 (GLS1; [2]): 15.9 nM

SMILES: CO[C@H](C(=O)Nc1nnc(N[C@@H]2CCN(c3cc(C)cnn3)C2)s1)c1ccccc1 [Example 13, (2S)-2-Methoxy-N-[5-[[(3R)-1-(5-methylpyridazin-3-yl)pyrrolidin-3-yl]amino]-1,3,4-thiadiazol-2-yl]-2-phenyl-acetamide]
- IC50 (cellular GLS activity): 0.658 nM
- IC50 (NCI-H1703 cells; [3]): 8.48 nM
- IC50 (GLS1; [2]): 59.2 nM

SMILES: COc1cccc([C@H](OC)C(=O)Nc2nnc(N[C@@H]3CCN(c4ccc(F)nn4)C3)s2)c1 [Example 3, (2S)-N-[5-[[(3R)-1-(6-Fluoropyridazin-3-yl)pyrrolidin-3-yl]amino]-1,3,4-thiadiazol-2-yl]-2-methoxy-2-(3-methoxyphenyl)acetamide]
- IC50 (NCI-H1703 cells; [3]): 3.62 nM

SMILES: COc1cc([C@H](OC)C(=O)Nc2nnc(N[C@@H]3CCN(c4ccc(C)nn4)C3)s2)ccc1F (single isomer, unassigned) [Example 6(a)]
- IC50 (NCI-H1703 cells; [1]): 20.9 nM

SMILES: COc1cc([C@H](OC)C(=O)Nc2nnc(N[C@@H]3CCN(c4ccc(C)nn4)C3)s2)ccc1F (single isomer, unassigned) [6(b)]
- IC50 (NCI-H1703 cells; [1]): 926 nM

SMILES: CO[C@@H](C(=O)Nc1nnc(N[C@@H]2CCN(c3ccc(F)nn3)C2)s1)c1cccc(OC(F)F)c1 [9(b), (2R)-2-[3-(difluoromethoxy)phenyl]-N-[5-[[(3R)-1-(6-fluoropyridazin-3-yl)pyrrolidin-3-yl]amino]-1,3,4-thiadiazol-2-yl]-2-methoxy-acetamide]
- IC50 (NCI-H1703 cells; [3]): 469 nM

SMILES: COc1ccc(C(OC)C(=O)Nc2nnc(N[C@@H]3CCN(c4ccc(C)nn4)C3)s2)cc1 (stereo partly drawn) [Example 29, 2-methoxy-2-(4-methoxyphenyl)-N-[5-[[(3R)-1-(6-methylpyridazin-3-yl)pyrrolidin-3-yl]amino]-1,3,4-thiadiazol-2-yl]acetamide]
- IC50 (NCI-H1703 cells; [1]): 586 nM
- IC50 (GLS1; [2]): 1280 nM

SMILES: CO[C@H](C(=O)Nc1nnc(N[C@@H]2CCN(c3ccc(F)nn3)C2)s1)c1cccc(OC(F)F)c1 [Example 9(a), (2S)-2-[3-(difluoromethoxy)phenyl]-N-[5-[[(3R)-1-(6-fluoropyridazin-3-yl)pyrrolidin-3-yl]amino]-1,3,4-thiadiazol-2-yl]-2-methoxy-acetamide]
- IC50 (NCI-H1703 cells; [3]): 3.09 nM

Reference: patent publication US9938265B2, “1,3,4-thiadiazole compounds and their use in treating cancer” (AstraZeneca AB, priority 2015, dated 2018)
